Measured values reported in ChEMBL document CHEMBL5653631, “A Potent and Selective ULK1 Inhibitor Suppresses Autophagy and Sensitizes Cancer Cells to Nutrient Stress” (iScience, 2018).

How the values were obtained:
[1] = molecular target: Serine/threonine-protein kinase PAK 2 (Homo sapiens) (UniProt Q13177); assay: Inhibition of human recombinant PAK2 at 40 nM in presence of ATP by radiometric assay relative to control
[2] = molecular target: T1, Protein kinase C zeta type (Homo sapiens) (UniProt Q05513); assay: Inhibition of human recombinant PKCz at 40 nM in presence of ATP by radiometric assay relative to control
T1 sequence (whole entry): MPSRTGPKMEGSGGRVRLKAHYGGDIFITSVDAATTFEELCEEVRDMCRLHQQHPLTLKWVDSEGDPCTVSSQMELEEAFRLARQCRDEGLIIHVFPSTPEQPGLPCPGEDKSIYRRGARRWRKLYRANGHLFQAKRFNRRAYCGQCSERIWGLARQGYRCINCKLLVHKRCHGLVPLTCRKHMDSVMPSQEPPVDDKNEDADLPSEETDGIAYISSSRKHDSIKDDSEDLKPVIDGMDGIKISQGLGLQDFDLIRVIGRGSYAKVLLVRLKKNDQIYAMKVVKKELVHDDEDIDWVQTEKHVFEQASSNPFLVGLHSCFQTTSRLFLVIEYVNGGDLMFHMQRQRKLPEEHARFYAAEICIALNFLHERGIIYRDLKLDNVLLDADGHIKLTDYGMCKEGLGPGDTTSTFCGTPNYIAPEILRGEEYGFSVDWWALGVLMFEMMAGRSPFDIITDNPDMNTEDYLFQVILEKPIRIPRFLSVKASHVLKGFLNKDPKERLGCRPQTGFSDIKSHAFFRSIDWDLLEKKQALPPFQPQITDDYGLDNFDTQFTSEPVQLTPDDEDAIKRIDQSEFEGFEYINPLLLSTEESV

[3] = molecular target: Serine/threonine-protein kinase PLK3 (Homo sapiens) (UniProt Q9H4B4); assay: Inhibition of human recombinant PLK3 at 40 nM related to control ULK1
[4] = molecular target: Calcium/calmodulin-dependent protein kinase type 1G (Homo sapiens) (UniProt Q96NX5); assay: Inhibition of human recombinant CaMK1g at 500 nM in presence of ATP by radiometric assay relative to control
[5] = molecular target: T2, Serine/threonine-protein kinase 17A (Homo sapiens) (UniProt Q9UEE5); assay: Inhibition of human recombinant DRAK1 at 500 nM in presence of ATP by radiometric assay relative to control
T2 sequence (whole entry): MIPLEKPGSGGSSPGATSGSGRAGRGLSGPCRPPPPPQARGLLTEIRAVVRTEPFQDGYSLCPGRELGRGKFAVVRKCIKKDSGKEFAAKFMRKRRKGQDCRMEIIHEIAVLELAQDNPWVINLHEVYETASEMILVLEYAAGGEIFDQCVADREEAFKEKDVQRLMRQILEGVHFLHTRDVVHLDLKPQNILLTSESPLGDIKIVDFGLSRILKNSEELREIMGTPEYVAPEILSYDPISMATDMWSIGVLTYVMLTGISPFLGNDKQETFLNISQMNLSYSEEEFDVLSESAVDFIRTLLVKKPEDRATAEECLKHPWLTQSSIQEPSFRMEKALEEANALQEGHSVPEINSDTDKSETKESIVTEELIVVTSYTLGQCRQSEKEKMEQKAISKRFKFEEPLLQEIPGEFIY

[6] = molecular target: T3, Ephrin type-B receptor 1 (Homo sapiens) (UniProt P54762); assay: Inhibition of human recombinant EphB1 at 500 nM in presence of ATP by radiometric assay relative to control
T3 sequence (whole entry): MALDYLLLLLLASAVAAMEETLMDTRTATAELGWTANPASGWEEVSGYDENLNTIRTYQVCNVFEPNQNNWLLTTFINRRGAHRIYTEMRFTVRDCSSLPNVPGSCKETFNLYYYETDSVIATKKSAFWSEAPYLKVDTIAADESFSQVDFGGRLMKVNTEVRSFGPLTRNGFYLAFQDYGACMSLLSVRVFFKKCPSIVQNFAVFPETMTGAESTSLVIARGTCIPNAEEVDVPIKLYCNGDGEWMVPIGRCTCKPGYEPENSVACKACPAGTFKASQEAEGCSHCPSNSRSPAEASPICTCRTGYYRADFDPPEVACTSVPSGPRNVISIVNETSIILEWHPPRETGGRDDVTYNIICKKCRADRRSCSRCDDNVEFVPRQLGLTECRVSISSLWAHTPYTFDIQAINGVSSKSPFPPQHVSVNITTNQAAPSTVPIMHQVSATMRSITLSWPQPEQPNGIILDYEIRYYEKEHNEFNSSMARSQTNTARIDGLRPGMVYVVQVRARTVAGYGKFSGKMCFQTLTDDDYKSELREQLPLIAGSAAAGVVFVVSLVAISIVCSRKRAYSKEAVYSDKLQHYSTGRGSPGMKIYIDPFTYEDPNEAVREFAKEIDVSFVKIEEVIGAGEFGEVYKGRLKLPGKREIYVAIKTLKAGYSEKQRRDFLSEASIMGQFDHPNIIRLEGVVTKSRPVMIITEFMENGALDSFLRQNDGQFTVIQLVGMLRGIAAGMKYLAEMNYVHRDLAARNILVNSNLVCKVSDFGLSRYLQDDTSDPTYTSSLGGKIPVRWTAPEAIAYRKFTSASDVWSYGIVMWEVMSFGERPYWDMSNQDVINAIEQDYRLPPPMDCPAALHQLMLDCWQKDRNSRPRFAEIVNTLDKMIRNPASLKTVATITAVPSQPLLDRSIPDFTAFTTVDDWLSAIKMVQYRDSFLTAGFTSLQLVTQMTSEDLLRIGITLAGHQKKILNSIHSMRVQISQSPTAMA

[7] = molecular target: Protein kinase C gamma type (Homo sapiens) (UniProt P05129); assay: Inhibition of human recombinant PKCg at 15 nM in presence of ATP by radiometric assay relative to control
[8] = molecular target: Tau-tubulin kinase 2 (Homo sapiens) (UniProt Q6IQ55); assay: Inhibition of human recombinant TTBK2 at 15 nM in presence of ATP by radiometric assay relative to control
[9] = molecular target: RAC-beta serine/threonine-protein kinase (Homo sapiens) (UniProt P31751); assay: Inhibition of human recombinant AKT2 at 15 nM related to control ULK1
RAC-beta serine/threonine-protein kinase (Homo sapiens), sequence (P31751 whole entry): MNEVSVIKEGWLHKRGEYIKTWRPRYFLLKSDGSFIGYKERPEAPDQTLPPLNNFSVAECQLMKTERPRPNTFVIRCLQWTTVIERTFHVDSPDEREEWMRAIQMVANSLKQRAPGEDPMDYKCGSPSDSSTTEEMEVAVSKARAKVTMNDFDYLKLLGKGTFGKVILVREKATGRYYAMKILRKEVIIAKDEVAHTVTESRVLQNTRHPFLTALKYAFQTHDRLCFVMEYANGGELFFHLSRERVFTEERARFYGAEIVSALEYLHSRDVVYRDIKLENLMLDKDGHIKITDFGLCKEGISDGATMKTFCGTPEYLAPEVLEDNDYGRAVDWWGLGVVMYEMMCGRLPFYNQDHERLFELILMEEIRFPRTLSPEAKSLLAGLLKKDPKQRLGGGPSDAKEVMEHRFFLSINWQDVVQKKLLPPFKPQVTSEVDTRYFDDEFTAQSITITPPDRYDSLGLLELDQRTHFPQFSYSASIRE

Calcium/calmodulin-dependent protein kinase type 1G (Homo sapiens), sequence (Q96NX5 whole entry): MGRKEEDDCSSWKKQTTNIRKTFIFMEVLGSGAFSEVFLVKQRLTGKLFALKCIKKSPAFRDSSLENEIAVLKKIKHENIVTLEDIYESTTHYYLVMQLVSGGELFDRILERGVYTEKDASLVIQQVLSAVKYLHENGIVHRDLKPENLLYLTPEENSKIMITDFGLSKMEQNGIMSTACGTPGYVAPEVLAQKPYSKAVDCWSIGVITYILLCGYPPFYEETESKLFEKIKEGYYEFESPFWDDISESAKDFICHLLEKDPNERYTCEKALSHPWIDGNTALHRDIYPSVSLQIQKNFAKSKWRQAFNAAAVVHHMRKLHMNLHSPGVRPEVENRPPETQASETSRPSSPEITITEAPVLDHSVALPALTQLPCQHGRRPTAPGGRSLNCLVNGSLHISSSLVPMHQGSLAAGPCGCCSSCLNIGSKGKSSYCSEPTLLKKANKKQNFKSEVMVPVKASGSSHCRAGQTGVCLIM
Serine/threonine-protein kinase PLK3 (Homo sapiens), sequence (Q9H4B4 whole entry, looked up): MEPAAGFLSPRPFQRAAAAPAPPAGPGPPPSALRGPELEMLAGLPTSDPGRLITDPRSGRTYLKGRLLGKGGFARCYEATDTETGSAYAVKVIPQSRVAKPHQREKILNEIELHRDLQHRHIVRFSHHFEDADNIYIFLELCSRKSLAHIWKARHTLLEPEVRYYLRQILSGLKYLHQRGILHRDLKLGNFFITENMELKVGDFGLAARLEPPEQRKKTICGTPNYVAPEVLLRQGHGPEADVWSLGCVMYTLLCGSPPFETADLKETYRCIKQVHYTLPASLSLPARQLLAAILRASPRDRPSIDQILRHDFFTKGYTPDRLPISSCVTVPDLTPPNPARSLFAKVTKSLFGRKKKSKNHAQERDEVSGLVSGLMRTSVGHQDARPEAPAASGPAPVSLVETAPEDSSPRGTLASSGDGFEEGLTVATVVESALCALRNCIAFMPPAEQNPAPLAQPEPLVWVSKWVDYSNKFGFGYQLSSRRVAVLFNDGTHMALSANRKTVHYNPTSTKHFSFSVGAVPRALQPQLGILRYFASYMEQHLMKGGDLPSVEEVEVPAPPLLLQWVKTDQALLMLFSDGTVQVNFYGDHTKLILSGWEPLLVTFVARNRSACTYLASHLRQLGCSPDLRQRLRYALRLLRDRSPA
Tau-tubulin kinase 2 (Homo sapiens), sequence (Q6IQ55 whole entry): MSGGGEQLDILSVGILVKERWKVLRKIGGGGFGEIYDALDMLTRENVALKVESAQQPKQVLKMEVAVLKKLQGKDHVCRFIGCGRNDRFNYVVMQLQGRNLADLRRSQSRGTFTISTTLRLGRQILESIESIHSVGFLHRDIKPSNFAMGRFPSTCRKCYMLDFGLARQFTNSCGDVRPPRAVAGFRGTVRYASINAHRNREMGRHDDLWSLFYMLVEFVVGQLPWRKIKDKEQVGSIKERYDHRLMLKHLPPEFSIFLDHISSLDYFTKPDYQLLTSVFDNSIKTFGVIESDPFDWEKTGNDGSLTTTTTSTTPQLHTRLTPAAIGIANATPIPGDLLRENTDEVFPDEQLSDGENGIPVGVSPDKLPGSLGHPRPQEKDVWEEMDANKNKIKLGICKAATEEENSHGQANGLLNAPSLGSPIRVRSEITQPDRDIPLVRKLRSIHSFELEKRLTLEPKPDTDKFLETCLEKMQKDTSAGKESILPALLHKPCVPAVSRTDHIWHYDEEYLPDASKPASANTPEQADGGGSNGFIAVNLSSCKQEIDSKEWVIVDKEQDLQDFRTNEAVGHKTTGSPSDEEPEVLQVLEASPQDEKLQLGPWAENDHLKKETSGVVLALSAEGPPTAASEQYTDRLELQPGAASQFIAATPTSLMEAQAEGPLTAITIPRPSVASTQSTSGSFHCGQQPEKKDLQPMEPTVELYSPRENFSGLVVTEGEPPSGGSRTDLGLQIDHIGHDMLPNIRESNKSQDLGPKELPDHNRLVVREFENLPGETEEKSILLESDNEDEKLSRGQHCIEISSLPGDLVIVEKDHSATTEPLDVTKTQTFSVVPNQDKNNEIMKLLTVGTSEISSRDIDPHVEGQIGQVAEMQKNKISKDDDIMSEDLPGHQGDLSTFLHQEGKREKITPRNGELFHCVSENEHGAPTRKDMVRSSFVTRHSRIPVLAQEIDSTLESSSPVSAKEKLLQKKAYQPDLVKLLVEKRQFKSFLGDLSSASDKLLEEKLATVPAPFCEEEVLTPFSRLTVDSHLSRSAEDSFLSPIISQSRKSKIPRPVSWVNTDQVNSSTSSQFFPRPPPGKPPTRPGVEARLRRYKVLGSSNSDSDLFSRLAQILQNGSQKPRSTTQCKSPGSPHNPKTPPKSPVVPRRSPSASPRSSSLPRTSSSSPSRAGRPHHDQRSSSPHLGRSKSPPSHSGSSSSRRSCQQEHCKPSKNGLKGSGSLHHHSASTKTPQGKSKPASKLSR
Serine/threonine-protein kinase PAK 2 (Homo sapiens), sequence (Q13177 whole entry): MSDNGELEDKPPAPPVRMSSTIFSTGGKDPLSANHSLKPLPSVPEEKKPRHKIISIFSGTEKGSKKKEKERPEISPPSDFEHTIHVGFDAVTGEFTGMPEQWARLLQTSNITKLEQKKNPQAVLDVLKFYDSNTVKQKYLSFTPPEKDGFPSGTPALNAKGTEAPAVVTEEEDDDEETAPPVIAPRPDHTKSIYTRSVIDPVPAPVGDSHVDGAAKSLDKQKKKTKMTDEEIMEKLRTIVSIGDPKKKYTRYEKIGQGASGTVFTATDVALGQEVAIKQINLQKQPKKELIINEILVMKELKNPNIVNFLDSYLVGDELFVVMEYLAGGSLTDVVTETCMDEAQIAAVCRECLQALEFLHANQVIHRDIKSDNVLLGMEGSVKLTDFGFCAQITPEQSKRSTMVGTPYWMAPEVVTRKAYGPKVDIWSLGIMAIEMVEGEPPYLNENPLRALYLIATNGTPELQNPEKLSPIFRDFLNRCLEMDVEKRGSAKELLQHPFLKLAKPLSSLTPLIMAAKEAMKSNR

For `O=C(N[C@@H](C1CC1)C(F)(F)F)c1cc(-c2cnn3cc(-c4ccc(F)cc4)cnc23)cs1`, the inhibition [1] was 0%, the inhibition [2] was 0% and the fold change (FC) [3] was 0.
Work on `CNC(=O)c1ccccc1Oc1nc(Nc2cc(OC)c(OC)c(OC)c2)ncc1Br` yielded an inhibition [4] of 6%, an inhibition [5] of 0% and an inhibition [6] of 10%.
With `CC(C)[C@H](NC(=O)c1cc(-c2cnn3cc(-c4ccc(OCCN5CCCCC5)cc4)cnc23)cs1)C(F)(F)F` the inhibition [7] was 0%, the inhibition [8] was 0% and the fold change (FC) [9] was 0.
